These molecules were tested on HBV viral load production from HepAD38 cells (assay: Viral production from HepAD38 cells: viral load in supernatant by qPCR of the HBV core sequence). Conditions: Hepatitis B virus, HePAD38, 120 h, 5 days incubation, qPCR of supernatant HBV DNA vs DMSO control, read-out: viral load lowering EC50 (Activity).
Type: cell-based
In short: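 HepAD38 cells seeded at 50,000/well in tetracycline-free medium with 2% FBS, treated with compounds (final top concentration 10 μM) for 5 days at 37 °C. Supernatant HBV DNA quantified by TaqMan qPCR of core sequence against HBV DNA standards, relative to DMSO controls; EC50 by four-parameter logistic fit.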

Compared with COC(=O)N1CCC(NC(=O)C2CC(C(=O)Nc3ccc(F)c(C#N)c3)N(C)S(=O)(=O)N2)CC1 (stereo not drawn) [Compound 770], CN1C(C(=O)Nc2ccc(F)c(C#N)c2)CC(C(=O)NC2CCN(C(=O)OC(C)(C)C)CC2)NS1(=O)=O (stereo not drawn) [Compound 868] is lower in EC50: 50 to 100 nM for the first, < 50 nM for the second. The second is the more potent here.

First: CN1C(C(=O)Nc2ccc(F)c(C#N)c2)CC(C(=O)NCc2cnc(C(F)(F)F)s2)NS1(=O)=O (stereo not drawn) [Compound 772]
Second: Cc1cnc(CNC(=O)C2CC(C(=O)Nc3ccc(F)c(C#N)c3)N(C)S(=O)(=O)N2)s1 (stereo not drawn) [Compound 829]
The EC50 of the first is lower: < 50 nM for the first, 100 to 10000 nM for the second. The first is the more potent here.

Cc1cc(CNC(=O)C2CC(C(=O)Nc3ccc(F)c(C#N)c3)N(C)S(=O)(=O)N2)n(C)n1 (stereo not drawn) [Compound 773] and Cc1c(CNC(=O)C2CC(C(=O)Nc3ccc(F)c(C#N)c3)N(C)S(=O)(=O)N2)cnn1C (stereo not drawn) [Compound 838] fall in the same range of EC50: 100 to 10000 nM for the first, 100 to 10000 nM for the second.

C[C@H](NC(=O)C1CC(C(=O)Nc2ccc(F)c(C#N)c2)N(C)S(=O)(=O)N1)c1ccc(F)cc1 (stereo partly drawn) [Compound 774] and C[C@@H](NC(=O)C1CC(C(=O)Nc2ccc(F)c(C#N)c2)N(C)S(=O)(=O)N1)c1ccc(F)cc1 (stereo partly drawn) [Compound 776] fall in the same range of EC50: 100 to 10000 nM for the first, 100 to 10000 nM for the second.

Cc1ccccc1CNC(=O)C1CC(C(=O)Nc2ccc(F)c(Cl)c2)N(C)S(=O)(=O)N1 (stereo not drawn) [Compound 817] and CN1C(C(=O)Nc2ccc(F)c(Cl)c2)CC(C(=O)NCc2ccccc2F)NS1(=O)=O (stereo not drawn) [Compound 819] cannot be ordered by EC50: < 50 nM for the first, < 50 nM for the second.

CN1C(C(=O)Nc2ccc(F)c(Cl)c2)CC(C(=O)NCc2ccccc2C(F)(F)F)NS1(=O)=O (stereo not drawn) [Compound 818] and CN1C(C(=O)Nc2ccc(F)c(Cl)c2)CC(C(=O)NCc2ccccc2Cl)NS1(=O)=O (stereo not drawn) [Compound 820] cannot be ordered by EC50: < 50 nM for the first, < 50 nM for the second.

CN1C(C(=O)Nc2ccc(F)c(Cl)c2)CC(C(=O)NCc2ccccc2Br)NS1(=O)=O (stereo not drawn) [Compound 821] and COc1ccccc1CNC(=O)C1CC(C(=O)Nc2ccc(F)c(Cl)c2)N(C)S(=O)(=O)N1 (stereo not drawn) [Compound 822] cannot be ordered by EC50: < 50 nM for the first, < 50 nM for the second.

Compared with CN1C(C(=O)Nc2ccc(F)c(Cl)c2)CC(C(=O)NCc2ccccc2-c2cn(C)cn2)NS1(=O)=O (stereo not drawn) [Compound 823], CN1C(C(=O)Nc2ccc(F)c(Cl)c2)CC(C(=O)NCc2ccccc2-n2ccnc2)NS1(=O)=O (stereo not drawn) [Compound 910] is higher in EC50: < 50 nM for the first, 50 to 100 nM for the second.

CN1C(C(=O)Nc2ccc(F)c(C#N)c2)CC(C(=O)NC2CC2c2ccccc2)NS1(=O)=O (stereo not drawn) [Compound 826] and CN1C(C(=O)Nc2ccc(F)c(C#N)c2)CC(C(=O)NCc2ccccc2)NS1(=O)=O (stereo not drawn) [Compound 833] fall in the same range of EC50: 100 to 10000 nM for the first, 100 to 10000 nM for the second.

Cc1csc(CNC(=O)C2CC(C(=O)Nc3ccc(F)c(C#N)c3)N(C)S(=O)(=O)N2)n1 (stereo not drawn) [Compound 828] and Cc1cccc(CNC(=O)C2CC(C(=O)Nc3ccc(F)c(C#N)c3)N(C)S(=O)(=O)N2)n1 (stereo not drawn) [Compound 831] fall in the same range of EC50: 100 to 10000 nM for the first, 100 to 10000 nM for the second.

First: CN1C(C(=O)Nc2ccc(F)c(C#N)c2)CC(C(=O)NCc2cnc(-c3ccccc3)s2)NS1(=O)=O (stereo not drawn) [Compound 830]
Second: CN1C(C(=O)Nc2ccc(F)c(C#N)c2)CC(C(=O)NCc2nc3ccccc3s2)NS1(=O)=O (stereo not drawn) [Compound 866]
The EC50 of the first is lower: 50 to 100 nM for the first, 100 to 10000 nM for the second.

COc1ccc(CNC(=O)C2CC(C(=O)Nc3ccc(F)c(C#N)c3)N(C)S(=O)(=O)N2)cc1 (stereo not drawn) [Compound 832] and CN1C(C(=O)Nc2ccc(F)c(C#N)c2)CC(C(=O)NCc2ccc(Cl)cc2)NS1(=O)=O (stereo not drawn) [Compound 836] fall in the same range of EC50: 50 to 100 nM for the first, 50 to 100 nM for the second.

Compared with C[C@@H](NC(=O)C1CC(C(=O)Nc2ccc(F)c(C#N)c2)N(C)S(=O)(=O)N1)c1ccccc1 (stereo partly drawn) [Compound 834], CN1C(C(=O)Nc2ccc(F)c(C#N)c2)CC(C(=O)NCc2cccc(Cl)c2)NS1(=O)=O (stereo not drawn) [Compound 837] is lower in EC50: 100 to 10000 nM for the first, < 50 nM for the second.

COc1cccc(CNC(=O)C2CC(C(=O)Nc3ccc(F)c(C#N)c3)N(C)S(=O)(=O)N2)c1 (stereo not drawn) [Compound 835] and CN1C(C(=O)Nc2ccc(F)c(Cl)c2)CC(C(=O)NCc2cnc(-c3cccc(Cl)c3)s2)NS1(=O)=O (stereo not drawn) [Compound 913] fall in the same range of EC50: 50 to 100 nM for the first, 50 to 100 nM for the second.

First: CC(=O)N1CCC(NC(=O)C2CC(C(=O)Nc3ccc(F)c(Cl)c3)N(C)S(=O)(=O)N2)CC1 (stereo not drawn) [Compound 851]
Second: CN1C(C(=O)Nc2ccc(F)c(Cl)c2)CC(C(=O)NC2CCN(C(=O)C3CC3)CC2)NS1(=O)=O (stereo not drawn) [Compound 854]
The EC50 of the first is higher: 100 to 10000 nM for the first, < 50 nM for the second.

Compared with CN1C(C(=O)Nc2ccc(F)c(Cl)c2)CC(C(=O)NC2CCN(C(=O)OCc3ccccc3)CC2)NS1(=O)=O (stereo not drawn) [Compound 852], CCN1C(C(=O)Nc2ccc(F)c(Cl)c2)CC(C(=O)NC2CCN(C(=O)OC)CC2)NS1(=O)=O (stereo not drawn) [Compound 890] is lower in EC50: 100 to 10000 nM for the first, < 50 nM for the second. The second is the more potent here.

First: CN1C(C(=O)Nc2ccc(F)c(Cl)c2)CC(C(=O)NC2CCN(c3ncccn3)CC2)NS1(=O)=O (stereo not drawn) [Compound 855]
Second: CN1C(C(=O)Nc2ccc(F)c(Cl)c2)CC(C(=O)NC2CCN(S(=O)(=O)C(F)(F)F)CC2)NS1(=O)=O (stereo not drawn) [Compound 856]
The EC50 of the first is lower: < 50 nM for the first, 100 to 10000 nM for the second. The first is the more potent here.

CN1C(C(=O)Nc2ccc(F)c(Cl)c2)CC(C(=O)NC2CC3CCC2C3)NS1(=O)=O (stereo not drawn) [Compound 858] and CN1C(C(=O)Nc2ccc(F)c(Cl)c2)CC(C(=O)NC2CCC(F)(F)CC2)NS1(=O)=O (stereo not drawn) [Compound 859] fall in the same range of EC50: 100 to 10000 nM for the first, 100 to 10000 nM for the second.

CC(C)OC1CCC(NC(=O)C2CC(C(=O)Nc3ccc(F)c(Cl)c3)N(C)S(=O)(=O)N2)CC1 (stereo not drawn) [Compound 862] and Cc1nc2c(s1)C(NC(=O)C1CC(C(=O)Nc3ccc(F)c(Cl)c3)N(C)S(=O)(=O)N1)CCC2 (stereo not drawn) [Compound 918] cannot be ordered by EC50: < 50 nM for the first, < 50 nM for the second.

CCN1C(C(=O)Nc2ccc(F)c(Cl)c2)CC(C(=O)NCc2cnc(C)s2)NS1(=O)=O (stereo not drawn) [Compound 888] and Cc1ncc(CNC(=O)C2CC(C(=O)Nc3ccc(F)c(Cl)c3)N(CC(F)(F)F)S(=O)(=O)N2)s1 (stereo not drawn) [Compound 891] fall in the same range of EC50: 100 to 10000 nM for the first, 100 to 10000 nM for the second.

First: COC(=O)N1CCC(NC(=O)C2CC(C(=O)Nc3ccc(F)c(Cl)c3)N(CC(F)(F)F)S(=O)(=O)N2)CC1 (stereo not drawn) [Compound 893]
Second: COCCN1C(C(=O)Nc2ccc(F)c(Cl)c2)CC(C(=O)NC2CCN(C(=O)OC)CC2)NS1(=O)=O (stereo not drawn) [Compound 896]
The EC50 of the first is lower: < 50 nM for the first, 100 to 10000 nM for the second. The first is the more potent here.

First: CN1C(C(=O)Nc2ccc(F)c(Cl)c2)CC(C(=O)NCc2ccccc2N2CCCCC2)NS1(=O)=O (stereo not drawn) [Compound 906]
Second: CN1C(C(=O)Nc2ccc(F)c(Cl)c2)CC(C(=O)NCc2ccccc2N2CCOCC2)NS1(=O)=O (stereo not drawn) [Compound 907]
The EC50 of the first is higher: 100 to 10000 nM for the first, 50 to 100 nM for the second. The second is the more potent here.

CN1C(C(=O)Nc2ccc(F)c(Cl)c2)CC(C(=O)NCc2ccccc2-n2cccn2)NS1(=O)=O (stereo not drawn) [Compound 909] and CN1C(C(=O)Nc2ccc(F)c(Cl)c2)CC(C(=O)NCc2cnc(-c3ccccc3Cl)s2)NS1(=O)=O (stereo not drawn) [Compound 912] cannot be ordered by EC50: < 50 nM for the first, < 50 nM for the second.

First: CN1C(C(=O)Nc2ccc(F)c(Cl)c2)CC(C(=O)NCc2cnc(-c3cccnc3)s2)NS1(=O)=O (stereo not drawn) [Compound 911]
Second: CN1C(C(=O)Nc2ccc(F)c(Cl)c2)CC(C(=O)NCc2cnc(-c3ccc(F)cc3)s2)NS1(=O)=O (stereo not drawn) [Compound 916]
The EC50 of the first is higher: 50 to 100 nM for the first, < 50 nM for the second.

Cc1nc(-c2ccccc2)sc1CNC(=O)C1CC(C(=O)Nc2ccc(F)c(Cl)c2)N(C)S(=O)(=O)N1 (stereo not drawn) [Compound 914] and CN1C(C(=O)Nc2ccc(F)c(Cl)c2)CC(C(=O)NC2CCCc3nc(-c4ccccc4)sc32)NS1(=O)=O (stereo not drawn) [Compound 917] cannot be ordered by EC50: < 50 nM for the first, < 50 nM for the second.

CN1C(C(=O)Nc2ccc(F)c(Cl)c2)CC(C(=O)NCc2cnc(-c3ccc(C(F)(F)F)cc3)s2)NS1(=O)=O (stereo not drawn) [Compound 915] gave an EC50 of 100 to 10000 nM.
